Measurements published in patent US8754115B2, “Fungicidal pyrazoles” (E I du Pont de Nemours and Company, priority 2010, dated 2014).
Marks after values point to notes of the source that are not given here.

Key:
Type in all cases: in vivo
[1] = system: Septoria tritici; test: Test D: preventive spray on wheat seedlings, visual disease rating (wheat leaf blotch)
Method in brief: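 Protection was scored visually on a 0–100% disease-control scale versus controls, 19 days after plants were moved to 20 °C following 48 h of 24 °C saturated humidity. Spore inoculation with S. tritici took place one day after a preventive run-off spray, usually at 200 ppm (800 g/ha) and at 40 ppm where asterisked.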

[2] = system: Alternaria solani; test: Test B: preventive spray on tomato seedlings, visual disease rating (tomato early blight)
Excerpt: (§1) General protocol for preparing test suspensions for Tests A-F: the test compounds were first dissolved in acetone in an amount equal to 3% of the final volume and then suspended at the desired concentration (in ppm) in acetone and purified water (50/50 mix by volume) containing 250 ppm of the surfactant Trem® 014 (polyhydric alcohol esters). The resulting test suspensions were then used in Tests A-F. Spraying a 200 ppm test suspension to the point of run-off on the test plants was the equivalent of a rate of 800 g/ha. Unless otherwise indicated, the rating values indicate a 200 ppm test suspension was used. (An asterisk “*” next to the rating value indicates a 40 ppm test suspension was used.)
The test suspension was sprayed to the point of run-off on tomato seedlings. The following day the seedlings were inoculated with a spore suspension of Alternaria solani (the causal agent of tomato early blight) and incubated in a saturated atmosphere at 27° C. for 48 h, and then moved to a growth chamber at 20° C. for 5 days, after which time visual disease ratings were made.
(§2) Results for Tests A-F are given in Table A. In the Table, a rating of 100 indicates 100% disease control and a rating of 0 indicates no disease control (relative to the controls). A dash (-) indicates no test results. An asterisk “*” next to the rating value indicates a 40 ppm test suspension was used.

[3] = system: Puccinia recondite f. sp. tritici; test: Test E1: curative spray on wheat seedlings after inoculation, visual disease rating (wheat leaf rust)
Excerpt: as §1
Wheat seedlings were inoculated with a spore suspension of Puccinia recondite f. sp. tritici (the causal agent of wheat leaf rust) and incubated in a saturated atmosphere at 20° C. for 24 h, and then moved to a growth chamber at 20° C. for 2 days. After 2 days, the test suspension was sprayed to the point of run-off on the wheat seedlings, and then the seedlings were moved back to the growth chamber at 20° C. for 6 days. Upon removal, visual disease ratings were made.
as §2

[4] = system: Puccinia recondite f. sp. tritici; test: Test E2: preventive spray on wheat seedlings, visual disease rating (wheat leaf rust)
Method in brief: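 Wheat seedlings were inoculated with leaf rust spores one day after a run-off spray of compound at 200 ppm (asterisk: 40 ppm) in 50/50 acetone/water with 250 ppm Trem 014. Incubation: 24 h saturated humidity, 20 °C; then 7 days growth chamber, 20 °C. Disease control scored visually, 0–100% relative to controls.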

[5] = system: Septoria nodorum; test: Test C: preventive spray on wheat seedlings, visual disease rating (Septoria glume blotch)
Excerpt: as §1
The test suspension was sprayed to the point of run-off on wheat seedlings. The following day the seedlings were inoculated with a spore suspension of Septoria nodorum (the causal agent of Septoria glume blotch) and incubated in a saturated atmosphere at 24° C. for 48 h, and then moved to a growth chamber at 20° C. for 6 days, after which time visual disease ratings were made.
as §2

[6] = system: Botrytis cinerea; test: Test A: preventive spray on tomato seedlings, visual disease rating (tomato Botrytis)
Method in brief: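 Preventive test: Botrytis cinerea spores applied one day after run-off spraying at 200 ppm (≈800 g/ha), or 40 ppm where asterisked. Incubation 48 h at 20 °C in saturated air, then 3 days at 24 °C; disease scored visually from 0 (no control) to 100 (complete control) versus untreated.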

[7] = system: Blumeria graminis f. sp. tritici; test: Test F: preventive spray on wheat seedlings, visual disease rating (wheat powdery mildew)
Method in brief: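 Visual ratings (0–100% control relative to controls) taken 8 days after spore-dust inoculation at 20° C. Inoculation followed one day after a protective run-off spray of 200 ppm suspension, equal to 800 g/ha, or 40 ppm where flagged, made in acetone/water with 250 ppm surfactant.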

[8] = no asterisk: standard test suspension, not 40 ppm
[9] = no asterisk: standard test suspension, not 40 ppm, 100 = 100% disease control, 0 = none
[10] = asterisk: 40 ppm test suspension

| Compound | Test D rating (% disease control) [1, 8] [%] | Test B rating (% disease control) [2, 8] [%] | Test E1 rating (% disease control) [3, 8] [%] | Test E2 rating (% disease control) [4, 8] [%] | Test C rating (% disease control) [5, 8] [%] | Test A rating (% disease control) [6, 9] [%] | Test F rating (% disease control) [7, 8] [%] | Test D rating (% disease control) [1, 10] | Test B rating (% disease control) [2, 10] | Test E1 rating (% disease control) [3, 10] | Test E2 rating (% disease control) [4, 10] | Test C rating (% disease control) [5, 10] | Test A rating (% disease control) [6, 10] | Test F rating (% disease control) [7, 10] |
| --- | --- | --- | --- | --- | --- | --- | --- | --- | --- | --- | --- | --- | --- | --- |
| 3-bromo-5-(2-chloro-4-fluorophenyl)-α-(2,4-difluorophenyl)-1-methyl-1H-pyrazole-4-methanol [Compound 30] | 100 | 0 | 100 | 100 | 0 | 100 | 99 |  |  |  |  |  |  |  |
| Cc1nn(C)c(-c2ccc(F)cc2Cl)c1C(O)c1c(F)cc(F)cc1F (stereo not drawn) [compound 19] | 100 | 100 | 100 | 100 | 100 | 99 | 100 |  |  |  |  |  |  |  |
| 4-[[5-(2-chloro-4-fluorophenyl)-1,3-dimethyl-1H-pyrazol-4-yl]amino]-3,5-difluorobenzonitrile [Compound 40] | 0 | 0 | 38 | 68 | 0 | 100 | 91 |  |  |  |  |  |  |  |
| Cc1nn(C)c(-c2ccc(F)cc2Cl)c1Nc1ccc(Cl)cc1F [Compound 45] | 100 | 0 | 77 | 97 | 0 | 100 | 99 | 100* % | 33* % | 0* % | 95* % | 0* % | 98* % | 100* % |
| Cc1nn(C)c(-c2c(F)cccc2F)c1S(=O)(=O)c1ccc(Cl)cc1 [compound 62] | 0 | 0 | 0 | 28 | 0 | 0 | 94 |  |  |  |  |  |  |  |
| COC(c1ccc(F)cc1Cl)c1c(C)nn(C)c1-c1c(F)cccc1Cl (stereo not drawn) [Compound 67] | 100 | 9 | 28 | 90 | 0 | 57 | 100 |  |  |  |  |  |  |  |
| Cc1nn(C)c(-c2ccc(F)cc2Cl)c1Nc1ccc(F)cc1 [compound 41] | 98 | 64 | 0 | 41 | 0 | 100 | 0 |  |  |  |  |  |  |  |
| Cc1nn(C)c(-c2c(F)cccc2Cl)c1C(O)c1ccc(C#N)cc1F (stereo not drawn) [compound 38] | 100 | 99 | 0 | 100 | 100 | 85 | 98 |  |  |  |  |  |  |  |
| (2,4-difluorophenyl)-[5-(2,4-difluorophenyl)-1,3-dimethyl-1H-pyrazol-4-yl]methanone [Compound 32] | 100 | 96 | 0 | 9 | 0 | 0 | 0 |  |  |  |  |  |  |  |
| Cc1nn(C)c(-c2c(F)cccc2Cl)c1C(C)(O)c1ccc(F)cc1F (stereo not drawn) [Compound 29] |  | 64 | 0 | 100 | 0 | 100 | 96 |  |  |  |  |  |  |  |
| COc1cc(F)c(C(O)c2c(C)nn(C)c2-c2c(F)cccc2F)c(F)c1 (stereo not drawn) [compound 16] | 100 | 99 | 54 | 100 | 0 | 100 | 93 |  |  |  |  |  |  |  |
| Cc1nn(C)c(-c2ccc(F)cc2Br)c1C(=O)c1ccc(F)cc1Cl [compound 83] |  |  |  |  |  |  |  | 25* % | 0* % | 0* % | 74* % | 0* % | 55* % | 99* % |
| 4-[(2-chloro-4-fluorophenyl)hydroxymethyl]-5-(2,6-difluorophenyl)-1-methyl-1H-pyrazole-3-carbonitrile [Compound 53] | 95 | 0 | 91 | 97 | 0 | 100 | 96 |  |  |  |  |  |  |  |
| Cc1nn(C)c(-c2ccc(C#N)cc2Cl)c1Oc1ccc(F)cc1Cl [compound 36] | 100 | 0 | 18 | 100 | 0 | 96 | 100 |  |  |  |  |  |  |  |
| Cc1nn(C)c(-c2c(F)cccc2F)c1C(=O)c1ccc(F)cc1F [compound 24] | 0 | 0 | 9 | 79 | 0 | 9 | 96 |  |  |  |  |  |  |  |
